US10774390B2, “Methods and compositions for modulating PrfA mediated virulence gene activation in Listeria spp” (The Regents of the University of California, priority 2015, dated 2020)

Key:
Listeria monocytogenes = assay: Virulence of strains grown with or without reducing agent: bacterial burdens in organs of intravenously infected mice; assay type: in vivo, CD-1 mice
Protocol: FIG. 2. In this experiment bacteria were grown in rich media (BHI) or Listeria synthetic media (LSM) with or without reducing agent (TCEP) and injected into mice IV. The data are CFUs at […] in liver and spleens. WT bacteria and a PrfA* strain that has constitutively active PrfA were used.
Prior to infection, bacterial strains were grown to stationary phase overnight in Listeria Synthetic Media (LSM) at 37° C., then diluted into either BHI or LSM, with or without reducing agent (2 mM TCEP) and grown at 37° C. with shaking until the OD600 was approximately 0.5. Cultures were re-suspended in 1× phosphate-buffered saline (PBS) and used to intravenously infect female CD-1 mice between 6 and 8 weeks of age with a final inoculum of 10^5 bacteria. At 48 hrs post-infection, mice were sacrificed and organs collected. Bacterial burdens were enumerated by plating organ homogenates on LB plates and incubating overnight.
WT bacteria and a PrfA* strain that has constitutively active PrfA were used.

PrfA = PrfA activation in L. monocytogenes strains expressing TagRFP from the actA promoter, grown in media with or without reducing agents; assay type: cell-based, Listeria monocytogenes; details: for activation of PrfA in vitro: L. monocytogenes grown in chemically defined media, excess of exogenously added reducing agent; for induction of ActA (FIG. 1): chemically defined media, fluorescent reporter driven by actA promoter; for Optimal concentration for prfA activation: reducing agent added to chemically defined media (Table 1)
Protocol: Experiments were conducted to identify any additional factors required for PrfA activation.
Three different strains were employed: WT 10403S (Lauer et al., J. Bacteriol. (2002) 184:4177-4186; ΔprfA which was an in frame deletion in prfA made by allelic exchange; and PrfA* which has a G145S mutation. The strains were engineered to express TagRFP from the actA promoter (e.g., as reported in Waite et al., PLoS Pathog. (2011)7:e1001326. A chemically defined media detailed in Table 1 was prepared.
Next, a number of reducing agents listed in Table 2 were added to the media.
The three strains were grown in the chemically defined media with or without the addition of the noted reducing agents.

| SMILES | bacteria in the organs (CFU, liver and spleen), fold more (Listeria monocytogenes; bacteria grown in LSM plus 2 mM TCEP, IV, 10^5 bacteria, 48 hrs post-infection) | activation of PrfA-dependent expression, measured by virulence (Listeria monocytogenes; defined medium and TCEP, compared with PrfA* strain) | activation of PrfA in vitro (PrfA) | induction of ActA (FIG. 1) (PrfA) | Optimal concentration for prfA activation (PrfA) [mM] | PrfA activation (PrfA; exogenous glutathione, standard complex broth culture) |
| --- | --- | --- | --- | --- | --- | --- |
| O=C(O)CCP(CCC(=O)O)CCC(=O)O [tris(2-carboxyethyl)phosphine (TCEP), tris(2-carboxyethyl)phosphine] | around 50 fold | equivalent to that of a PrfA-constituitive mutant | recapitulated | induction of ActA | 2 | – |
| OCCS [2-mercaptoethanol (BME), 2-mercaptoethanol] | – | – | recapitulated | – | 2 | – |
| N[C@@H](CS)C(=O)O [L-Cysteine] | – | – | – | induction of ActA | 10 | – |
| N[C@@H](CCC(=O)N[C@@H](CS)C(=O)NCC(=O)O)C(=O)O [Glutathione (reduced), Glutathione] | – | – | sufficient to stimulate activation of PrfA | induction of ActA | 10 | insufficient to stimulate PrfA activation |
| O[C@H](CS)[C@H](O)CS (racemic) [dithiothreitol (DTT), dithiothreitol] | – | – | recapitulated | – | 2 | – |
